Key:
Assay in all cases: Bliss excess, mean over the matrix (fraction); higher = more synergy
[1] = test system: HT55 (Colorectal Carcinoma)
Procedure, shortened: (§1)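 Bliss excess equals the observed combination effect minus the expected value EA + EB − EA·EB, where EA and EB are the effects of each agent alone. Combination Emax is the second-highest inhibition within the matrix. Inhibition was scaled from CellTiter-Glo 2.0 luminescence, with 0 set by vehicle wells and 1 by blank wells, after 72 hours of two-drug dosing of cells plated in 1536-well plates.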

[2] = test system: JHU-022 (Oral Cavity Carcinoma)
Procedure, shortened: as §1

PEO1 (Ovarian Carcinoma) = test system: PEO1 (Ovarian Carcinoma)
Procedure, shortened: as §1

COLO-792 (Melanoma) = test system: COLO-792 (Melanoma)
Procedure, shortened: as §1

[3] = test system: CESS (Acute Myeloid Leukemia)
Procedure, shortened: as §1

[4] = test system: SW620 (Colorectal Carcinoma)
Procedure, shortened: as §1

[5] = test system: GCT (Other Solid Carcinomas)
Procedure, shortened: as §1

[6] = test system: 22RV1 (Prostate Carcinoma)
Procedure, shortened: as §1

AU565 (Breast Carcinoma) = test system: AU565 (Breast Carcinoma)
Procedure, shortened: as §1

5637 (Bladder Carcinoma) = test system: 5637 (Bladder Carcinoma)
Procedure, shortened: as §1

[7] = test system: SK-HEP-1 (Hepatocellular Carcinoma)
Procedure, shortened: as §1

[8] = test system: JVM-2 (B-Cell Non-Hodgkin's Lymphoma)
Procedure, shortened: as §1

[9] = test system: DMS-53 (Small Cell Lung Carcinoma)
Procedure, shortened: as §1

[10] = test system: GA-10 (Burkitt's Lymphoma)
Procedure, shortened: as §1

[11] = test system: CGTH-W-1 (Thyroid Gland Carcinoma)
Procedure, shortened: as §1

A101D (Melanoma) = test system: A101D (Melanoma)
Procedure, shortened: as §1

[12] = test system: NCI-H2087 (Lung Adenocarcinoma)
Procedure, shortened: as §1

[13] = test system: HCC1395 (Breast Carcinoma)
Procedure, shortened: as §1

[14] = test system: A253 (Head and Neck Carcinoma)
Procedure, shortened: as §1

NB13 (Neuroblastoma) = test system: NB13 (Neuroblastoma)
Procedure, shortened: as §1

Row | SMILES | Bliss excess [1] | Bliss excess [2] | Bliss excess (PEO1 (Ovarian Carcinoma)) | Bliss excess (COLO-792 (Melanoma)) | Bliss excess [3] | Bliss excess [4] | Bliss excess [5] | Bliss excess [6] | Bliss excess (AU565 (Breast Carcinoma)) | Bliss excess (5637 (Bladder Carcinoma)) | Bliss excess [7] | Bliss excess [8] | Bliss excess [9] | Bliss excess [10] | Bliss excess [11] | Bliss excess (A101D (Melanoma)) | Bliss excess [12] | Bliss excess [13] | Bliss excess [14] | Bliss excess (NB13 (Neuroblastoma))
1 | CN(C)CCCOc1ccc(-c2ccc3ncc4c(c3c2)n(C2CCOCC2)c(=O)n4C)cn1 [AZD0156] + O=C(c1cc(Cc2n[nH]c(=O)c3ccccc23)ccc1F)N1CCN(C(=O)C2CC2)CC1 [Olaparib] (first compound max 3 µM, partner max 3 µM) | 0.0254 | -0.0079 | -0.0891 | 0.0844 | 0.075 | 0.0953 | 0.0068 | 0.0313 | 0.0442 | 0.138 | 0.0576 | 0.0457 | -0.0283 | 0.131 | 0.0361 | 0.134 | -0.043 | 0.0515 | 0.0536 | –
2 | C=CCn1c(=O)c2cnc(Nc3ccc(N4CCN(C)CC4)cc3)nc2n1-c1cccc(C(C)(C)O)n1 [AZD1775] + C1CN(CCC1(C(=O)N[C@@H](CCO)C2=CC=C(C=C2)Cl)N)C3=NC=NC4=C3C=CN4 [Capivasertib] (first compound max 3 µM, partner max 3 µM) | -0.125 | -0.022 | -0.0697 | 0.0596 | -0.0359 | -0.0402 | 0.004 | -0.0348 | -0.0494 | 0.0064 | 0.0958 | -0.0591 | -0.007 | 0.0431 | -0.0278 | 0.0152 | -0.0287 | -0.0085 | 0.0248 | –
3 | C=CCn1c(=O)c2cnc(Nc3ccc(N4CCN(C)CC4)cc3)nc2n1-c1cccc(C(C)(C)O)n1 [AZD1775] + CCc1c2c(nc3ccc(O)cc13)-c1cc3c(c(=O)n1C2)COC(=O)[C@]3(O)CC [SN-38] (first compound max 1 µM, partner max 0.3 µM) | – | -0.0638 | -0.0267 | – | – | -0.0563 | – | -0.0464 | – | – | -0.0134 | – | – | – | -0.0747 | – | 0.0067 | -0.0322 | – | -0.0592
4 | C=CCn1c(=O)c2cnc(Nc3ccc(N4CCN(C)CC4)cc3)nc2n1-c1cccc(C(C)(C)O)n1 [AZD1775] + O=C(c1cc(Cc2n[nH]c(=O)c3ccccc23)ccc1F)N1CCN(C(=O)C2CC2)CC1 [Olaparib] (first compound max 1 µM, partner max 10 µM) | 0.0391 | -0.0257 | -0.013 | -0.0241 | -0.0054 | -0.0395 | -0.0327 | -0.0296 | -0.0195 | -0.0551 | – | 0.0055 | -0.0715 | -0.0462 | -0.0222 | -0.0542 | -0.0212 | -0.0557 | 0.0364 | 0.0008
5 | CN(CCO)CC[C@H](CSc1ccccc1)Nc1ccc(S(=O)(=O)NC(=O)c2ccc(N3CCC([C@@H](O)c4ccccc4-c4ccc(Cl)cc4)CC3)cc2)cc1S(=O)(=O)C(F)(F)F [AZD4320] + CN(C)CCCOc1ccc(-c2ccc3ncc4c(c3c2)n(C2CCOCC2)c(=O)n4C)cn1 [AZD0156] (first compound max 1 µM, 7x7, partner max 1 µM) | -0.0158 | -0.0584 | -0.0753 | – | -0.0814 | -0.029 | -0.0401 | -0.0416 | 0.0203 | -0.0311 | 0.0146 | 0.0248 | 0.0316 | 0.0026 | -0.0346 | -0.0298 | -0.0496 | -0.0269 | 0.0114 | -0.0371
6 | CN(CCO)CC[C@H](CSc1ccccc1)Nc1ccc(S(=O)(=O)NC(=O)c2ccc(N3CCC([C@@H](O)c4ccccc4-c4ccc(Cl)cc4)CC3)cc2)cc1S(=O)(=O)C(F)(F)F [AZD4320] + CS(=O)(=O)CCNCc1ccc(-c2ccc3ncnc(Nc4ccc(OCc5cccc(F)c5)c(Cl)c4)c3c2)o1 [Lapatinib] (first compound max 1 µM, 7x7, partner max 10 µM) | – | 0.0438 | 0.0311 | – | – | -0.0116 | – | -0.0394 | – | – | -0.0958 | – | – | – | -0.0184 | – | -0.0033 | -0.0261 | – | 0.0537
7 | Cc1c2c(nn1C)CSCc1cc(n(C)n1)CSc1cc(c3ccccc3c1)OCCCc1c(C(=O)O)n(C)c3c-2c(Cl)ccc13 [AZD5991] + CS(=O)(=O)CCNCc1ccc(-c2ccc3ncnc(Nc4ccc(OCc5cccc(F)c5)c(Cl)c4)c3c2)o1 [Lapatinib] (first compound max 1 µM, 7x7, partner max 10 µM) | – | 0.0807 | -0.0352 | – | – | -0.043 | – | -0.0131 | – | – | 0.0191 | – | – | – | 0.0013 | – | 0.0165 | -0.0227 | – | -0.0239
8 | Cc1c2c(nn1C)CSCc1cc(n(C)n1)CSc1cc(c3ccccc3c1)OCCCc1c(C(=O)O)n(C)c3c-2c(Cl)ccc13 [AZD5991] + Cn1cnc2c(F)c(Nc3ccc(Br)cc3Cl)c(C(=O)NOCCO)cc21 [Selumetinib] (first compound max 1 µM, 7x7, partner max 3 µM) | 0.043 | 0.0466 | 0.0027 | 0.0234 | – | 0.0005 | 0.0058 | 0.0253 | 0.0145 | 0.0174 | -0.0484 | 0.0529 | 0.0572 | 0.0086 | -0.0152 | 0.0482 | 0.0282 | 0.0152 | 0.0716 | 0.045
9 | C[C@@H]1COCCN1c1cc(C2([S@](C)(=N)=O)CC2)nc(-c2ccnc3[nH]ccc23)n1 [AZD6738] + C1CC(C1)(C(=O)[O-])C(=O)[O-].N.N.[Pt+2] [Carboplatin] (first compound max 10 µM, 7x7, partner max 10 µM) | – | -0.0325 | -0.0595 | – | – | -0.0461 | – | -0.0138 | – | – | -0.0469 | – | – | – | -0.0098 | – | -0.0344 | -0.0573 | – | -0.0955
10 | C[C@@H](Oc1cc(-c2cnn(C3CCNCC3)c2)cnc1N)c1c(Cl)ccc(F)c1Cl [Crizotinib] + CC1=C(C(=CC=C1)Cl)NC(=O)C2=CN=C(S2)NC3=CC(=NC(=N3)C)N4CCN(CC4)CCO [Dasatinib] (first compound max 10 µM, 7x7, partner max 2 µM) | – | -0.0186 | -0.0226 | – | – | 0.0171 | – | -0.0187 | – | – | -0.0098 | – | – | – | 0.0795 | – | -0.0254 | 0.0615 | – | -0.06
11 | C[C@@H](Oc1cc(-c2cnn(C3CCNCC3)c2)cnc1N)c1c(Cl)ccc(F)c1Cl [Crizotinib] + Cn1cnc2c(F)c(Nc3ccc(Br)cc3Cl)c(C(=O)NOCCO)cc21 [Selumetinib] (first compound max 10 µM, 7x7, partner max 10 µM) | – | -0.0115 | -0.0013 | – | – | 0.0065 | – | 0.0331 | – | – | -0.0968 | – | – | – | -0.0275 | – | -0.0078 | -0.0786 | – | -0.104
12 | CS(=O)(=O)CCNCc1ccc(-c2ccc3ncnc(Nc4ccc(OCc5cccc(F)c5)c(Cl)c4)c3c2)o1 [Lapatinib] + Cn1cnc2c(F)c(Nc3ccc(Br)cc3Cl)c(C(=O)NOCCO)cc21 [Selumetinib] (first compound max 10 µM, 7x7, partner max 10 µM) | – | -0.0636 | -0.0453 | – | – | -0.0193 | – | -0.045 | – | – | -0.0163 | – | – | – | -0.0291 | – | -0.0455 | -0.0343 | – | -0.0311
13 | CS(=O)(=O)CCNCc1ccc(-c2ccc3ncnc(Nc4ccc(OCc5cccc(F)c5)c(Cl)c4)c3c2)o1 [Lapatinib] + NC1(c2ccc(-c3nc4ccn5c(=O)[nH]nc5c4cc3-c3ccccc3)cc2)CCC1 [MK-2206] (first compound max 10 µM, 7x7, partner max 10 µM) | – | -0.0585 | -0.0687 | – | – | -0.0275 | – | -0.0139 | – | – | -0.0936 | – | 0.0185 | – | 0.0174 | -0.0638 | -0.0221 | -0.0376 | – | -0.0348
14 | O=C(c1cc(Cc2n[nH]c(=O)c3ccccc23)ccc1F)N1CCN(C(=O)C2CC2)CC1 [Olaparib] + Cc1c2c(nn1C)CSCc1cc(n(C)n1)CSc1cc(c3ccccc3c1)OCCCc1c(C(=O)O)n(C)c3c-2c(Cl)ccc13 [AZD5991] (first compound max 10 µM, 7x7, partner max 1 µM) | – | -0.052 | -0.069 | – | – | -0.0572 | – | -0.0012 | – | – | -0.0101 | – | – | – | -0.045 | – | -0.0327 | -0.016 | – | –
15 | CCc1c2c(nc3ccc(O)cc13)-c1cc3c(c(=O)n1C2)COC(=O)[C@]3(O)CC [SN-38] + O=C(c1cc(Cc2n[nH]c(=O)c3ccccc23)ccc1F)N1CCN(C(=O)C2CC2)CC1 [Olaparib] (first compound max 0.3 µM, 7x7, partner max 10 µM) | 0.0966 | 0.0415 | 0.0523 | 0.0356 | 0.0785 | 0.0524 | 0.103 | 0.0497 | 0.0698 | – | 0.0077 | 0.115 | 0.0457 | – | 0.0526 | 0.114 | 0.017 | 0.0315 | 0.0223 | -0.017
16 | Cc1nc(-c2cn3c(n2)-c2ccc(-c4cnn(C(C)(C)C(N)=O)c4)cc2OCC3)n(C(C)C)n1 [Taselisib] + O=C(Nc1ccc2[nH]nc(-c3ccncc3)c2c1)[C@@H]1CCN(CC(=O)N2CCN(c3ccc(-c4ncccn4)cc3)CC2)C1 [SCH772984] (first compound max 10 µM, 7x7, partner max 5 µM) | – | -0.0001 | 0.0874 | – | – | 0.0518 | – | 0.0502 | – | – | 0.0372 | – | – | – | 0.0884 | – | 0.0543 | 0.0294 | – | 0.0664
17 | CC1(C)CCC(CN2CCN(c3ccc(C(=O)NS(=O)(=O)c4ccc(NCC5CCOCC5)c([N+](=O)[O-])c4)c(Oc4cnc5[nH]ccc5c4)c3)CC2)=C(c2ccc(Cl)cc2)C1 [Venetoclax] + CS(=O)(=O)CCNCc1ccc(-c2ccc3ncnc(Nc4ccc(OCc5cccc(F)c5)c(Cl)c4)c3c2)o1 [Lapatinib] (first compound max 1 µM, 7x7, partner max 10 µM) | – | -0.0551 | -0.0673 | – | – | -0.0409 | – | -0.0688 | – | – | 0.0013 | – | – | – | -0.0396 | – | -0.0431 | -0.0509 | – | -0.028
